Test results as given in patent US20250332173A1, “COMPOUNDS AND METHODS FOR MODULATING NUCLEIC ACID SPLICING” (REMIX THERAPEUTICS INC., priority 2021, published 2025).
Like-named read-outs stand apart in the source and are kept apart here.

Key:
Format in all cases: cell-based, human
HTT mRNA = assay: RT-qPCR splicing assay, HTT canonical junction (CJ) and alternative junction (AJ) mRNA; details: Homo sapiens; for AC50: increase in HTT alternative junction (AJ) mRNA, read-out: HTT AJ AC50
Outline: (§1)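 Read-out is one-step RT-qPCR on cell lysates detecting the exon-exon junction of each isoform, normalized to a housekeeping gene (PPIA in A673, GAPDH or GUSB in K562).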

HTT = assay: HiBiT protein abundance assay, HTT HiBiT K562 cell line; details: 24 hours, top dose 10 μM
Outline: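 Tagged-protein abundance measured by split-NanoBiT luminescence after lysis, following 24 h compound exposure (37° C; 10 μM top, 3-fold, 10 points; DMSO ≤0.25%) of HiBiT knock-in K562 cells. Percent response vs DMSO and unmodified-cell controls; 4-parameter logistic interpolation at 50% gave IC50.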

MYB mRNA = assay: RT-qPCR splicing assay, MYB canonical junction (CJ) and alternative junction (AJ) mRNA; details: Homo sapiens; for AC50: increase in MYB alternative junction (AJ) mRNA, read-out: MYB AJ AC50
Outline: as §1

[1] = decrease in HTT canonical junction (CJ) mRNA, RT-qPCR, read-out: HTT CJ IC50
[2] = canonical junction qPCR panel, Table 5, read-out: HTT (decrease in CJ mRNA levels, IC50)
[3] = HiBiT K562 cell line, read-out: Effect on protein abundance, HTT (IC50 category)
[4] = canonical junction qPCR panel, Table 5, read-out: MYB (decrease in CJ mRNA levels, IC50)
[5] = decrease in MYB canonical junction (CJ) mRNA, RT-qPCR, read-out: MYB CJ IC50
[6] = HiBiT lytic detection, modified K562 cells, read-out: Effect on protein abundance, HTT (IC50)

Row | SMILES | IC50 (HTT mRNA; [1]) [µM] | AC50 (HTT mRNA; RT-qPCR) [µM] | IC50 (HTT mRNA; [2]) [µM] | IC50 (HTT; [3]) [µM] | IC50 (MYB mRNA; [4]) [µM] | IC50 (MYB mRNA; [5]) [µM] | AC50 (MYB mRNA; RT-qPCR) [µM] | IC50 (HTT; [6]) [µM]
1 | Cc1c(O)c(-c2ccc3c(=O)n([C@@H]4C[C@@H](C)N[C@@H](C)C4)ccc3n2)cc2cn(C)nc12 [Compound 1463, 6-[(2S,6R)-2,6-dimethyl-4-piperidyl]-2-(6-hydroxy-2,7-dimethyl-indazol-5-yl)-1,6-naphthyridin-5-one] | 1 to 10 | 0.1 to 1 | 0.1 to 1 | 0.1 to 1 | 0.1 to 1 | 0.1 to 1 | 0.1 to 1 | –
2 | Cc1c(O)c(-c2ccc3c(=O)n([C@H]4C[C@@H](C)N[C@@H](C)C4)ccc3n2)cc2cn(C)nc12 [Compound 1464, 6-[(2S,6R)-2,6-dimethyl-4-piperidyl]-2-(6-hydroxy-2,7-dimethyl-indazol-5-yl)-1,6-naphthyridin-5-one] | 0.1 to 1 | 0.1 to 1 | 0.1 to 1 | 0.1 to 1 | < 0.1 | 0.1 to 1 | < 0.1 | –
3 | Cn1cc2cc(-c3ncc4c(=O)n([C@H]5CCNC5)ccc4n3)c(O)c(F)c2n1 [Compound 1465] | 0.1 to 1 | 0.1 to 1 | 0.1 to 1 | 0.1 to 1 | 0.1 to 1 | 0.1 to 1 | 0.1 to 1 | –
4 | Cn1cc2cc(-c3ncc4c(=O)n([C@@H]5CCNC5)ccc4n3)c(O)c(F)c2n1 [Compound 1466] | 0.1 to 1 | 0.1 to 1 | 0.1 to 1 | – | 0.1 to 1 | 0.1 to 1 | 0.1 to 1 | 0.1 to 1
5 | Cc1c(O)c(-c2ccc3c(=O)n(C4CCNC4)cc(C)c3n2)cc2cn(C)nc12 (centres unmarked) [Compound 1467] | > 10 | 1 to 10 | 1 to 10 | – | 0.1 to 1 | 0.1 to 1 | 0.1 to 1 | 0.1 to 1
6 | Cn1cc2cc(-c3ncc4c(=O)n(C56CCC(N)(CC5)C6)ccc4n3)c(O)c(F)c2n1 [Compound 1468] | 0.1 to 1 | 0.1 to 1 | 0.1 to 1 | – | < 0.1 | < 0.1 | < 0.1 | 0.1 to 1
7 | Cc1cn2cc(-c3ncc4c(=O)n(C56CCC(N)(CC5)C6)ccc4n3)cc(F)c2n1 [Compound 1469, 6-(4-aminonorbornane-1-yl)-2-(8-fluoro-2-methyl-imidazo[1,2-a]pyridin-6-yl)pyrido[4,3-d]pyrimidin-5-one] | 1 to 10 | 1 to 10 | 1 to 10 | – | 0.1 to 1 | 0.1 to 1 | 0.1 to 1 | 1 to 10
8 | Cn1cc2cc(-c3ncc4c(=O)n(C56CCC(N)(CC5)C6)ccc4n3)c(O)cc2n1 [Compound 1470] | > 10 | 1 to 10 | 1 to 10 | – | 0.1 to 1 | 0.1 to 1 | 0.1 to 1 | 1 to 10
9 | Cc1c(O)c(-c2ncc3c(=O)n([C@@H]4C[C@H]5COC[C@@H](C4)N5)ccc3n2)cc2cn(C)nc12 [Compound 1471] | 0.1 to 1 | 0.1 to 1 | 0.1 to 1 | – | < 0.1 | < 0.1 | < 0.1 | 0.1 to 1
10 | Cc1c(O)c(-c2ncc3c(=O)n([C@@H]4CC[C@@H](N)C4)ccc3n2)cc2cn(C)nc12 [Compound 1476, 6-[(1R,3R)-3-aminocyclopentyl]-2-(6-hydroxy-2,7-dimethyl-indazol-5-yl)pyrido[4,3-d]pyrimidin-5-one] | 1 to 10 | 0.1 to 1 | 0.1 to 1 | – | 0.1 to 1 | 0.1 to 1 | 0.1 to 1 | 0.1 to 1
11 | Cc1c(O)c(-c2ncc3c(=O)n([C@@H]4CC[C@H](N)C4)ccc3n2)cc2cn(C)nc12 [Compound 1477] | 0.1 to 1 | < 0.1 | < 0.1 | – | < 0.1 | < 0.1 | < 0.1 | < 0.1
12 | CNC12CCC(n3ccc4nc(-c5cc6cn(C)nc6c(C)c5O)ncc4c3=O)(CC1)C2 [Compound 1479] | 1 to 10 | 1 to 10 | 1 to 10 | – | < 0.1 | 0.1 to 1 | < 0.1 | 0.1 to 1
13 | Cc1c(O)c(-c2ncc3c(=O)n([C@H]4CCNC5(CC5)C4)ccc3n2)cc2cn(C)nc12 [Compound 1512] | 0.1 to 1 | 0.1 to 1 | 0.1 to 1 | – | < 0.1 | 0.1 to 1 | < 0.1 | < 0.1
14 | Cc1c(O)c(-c2nc(C)c3c(=O)n([C@@H]4CCNC5(CC5)C4)ccc3n2)cc2cn(C)nc12 [Compound 1515, (R)-2-(6-hydroxy-2,7-dimethyl-2H-indazol-5-yl)-4-methyl-6-(4-azaspiro[2.5]octan-7-yl)pyrido[4,3-d]pyrimidin-5(6H)-one] | 1 to 10 | 0.1 to 1 | 0.1 to 1 | – | < 0.1 | 0.1 to 1 | < 0.1 | 0.1 to 1
15 | COc1cc(-c2ccc3c(=O)n([C@H]4CCN[C@@H](C)C4)ccc3n2)nn2cc(C)nc12 [Compound 1519, 2-(8-methoxy-2-methyl-imidazo[1,2-b]pyridazin-6-yl)-6-[(2S,4S)-2-methyl-4-piperidyl]-1,6-naphthyridin-5-one] | 0.1 to 1 | < 0.1 | < 0.1 | – | 0.1 to 1 | 0.1 to 1 | 0.1 to 1 | < 0.1
16 | Cc1cn2nc(-c3ccc4c(=O)n([C@@H]5CCN(C)[C@H](C)C5)ncc4n3)cc(C)c2n1 [Compound 1527] | 0.1 to 1 | 0.1 to 1 | 0.1 to 1 | – | 0.1 to 1 | 0.1 to 1 | 0.1 to 1 | 0.1 to 1
17 | Cc1cn2nc(-c3ccc4c(=O)n([C@H]5CCN(C)[C@@H](C)C5)ncc4n3)cc(C)c2n1 [Compound 1528, 2-(2,8-dimethylimidazo[1,2-b]pyridazin-6-yl)-6-(1,2-dimethyl-4-piperidyl)pyrido[2,3-d]pyridazin-5-one] | 0.1 to 1 | 0.1 to 1 | 0.1 to 1 | – | 0.1 to 1 | 0.1 to 1 | 0.1 to 1 | 0.1 to 1
18 | CCN1CC[C@@H](n2ncc3nc(-c4cc(C)c5nc(C)cn5n4)ccc3c2=O)CC12CC2 [Compound 1530] | < 0.1 | < 0.1 | < 0.1 | – | < 0.1 | < 0.1 | < 0.1 | < 0.1
19 | CCN1CC[C@H](n2ncc3nc(-c4cc(C)c5nc(C)cn5n4)ccc3c2=O)CC12CC2 [Compound 1531] | 0.1 to 1 | < 0.1 | < 0.1 | – | 0.1 to 1 | 0.1 to 1 | 0.1 to 1 | 0.1 to 1
20 | Cc1cn2nc(-c3ccc4c(=O)n([C@H]5CCN(C)C6(CC6)C5)ncc4n3)cc(C)c2n1 [Compound 1533] | 0.1 to 1 | < 0.1 | < 0.1 | – | 0.1 to 1 | 0.1 to 1 | 0.1 to 1 | 0.1 to 1
